# Data reported in patent US12037305B2, “Calcium salt polymorphs as anti-inflammatory, immunomodulatory and anti-proliferative agents” (Immunic AG, priority 2018, dated 2024).
# pIC50: −log10 of the molar value. Structures can show the parent of a compound that is named as a salt.
# Tests used:
# [1] = Dynamic vapor sorption (DVS); type: physicochemical
# Text: DVS (SMS): Surface Measurement Systems Ltd. DVS-1 water vapour sorption analyzer. The sample is placed on a platinum sample pan and allowed to equilibrate at a given relative humidity (r.h.), usually 50% r.h. Then, a pre-defined humidity program was started with a scanning rate of 5% r.h. change per hour. First step: from 50% r.h. to 0% r.h. (in case of a possibly hydrate as starting material 50 to 95% r.h.), second step: from 0% to 95% r.h. (in case of a possibly hydrate as starting material 95 to 0% r.h.)
# Human T-Cells = experiment: Proliferation assay of human T-cells (PHA-stimulated PBMC, BrdU ELISA); type: cell-based; conditions: T-cell, PHA 20 μg/ml, 48 hours
# Protocol: Human peripheral blood mononuclear cells (PBMC) were obtained from healthy volunteers and transferred to RPMI1640 cell culture medium containing 10% dialyzed fetal calf serum. 80.000 cells per well were pipetted into a 96-well plate and phytohemagglutinin (PHA) was added in phosphate buffered saline to a final concentration of 20 μg/ml to stimulate T-cell proliferation. Vidofludimus was added in dimethyl sulfoxide (DMSO, final concentration: 0.1 Vol %) to final concentrations ranging from 20 nM to 50 μM. After incubation for 48 hours, cell proliferation was quantified using the “cell proliferation ELISA BrdU” (Roche) according to the manufacturer's instructions. Half maximal inhibition (IC50) was calculated using a 4-parameter sigmoidal curve fit.
water uptake ([1]; at 95% r.h. (not reversible)) [%],"water uptake ([1]; at about 85% r.h., after desolvation) [%]",Structure (SMILES),pIC50 (Human T-Cells)
0.4,0.3,COc1cccc(-c2ccc(NC(=O)C3=C(C(=O)O)CCC3)c(F)c2)c1 [Calcium salt],–
–,–,"COc1cccc(-c2ccc(NC(=O)C3=C(C(=O)O)CCC3)c(F)c2)c1 [Vidofludimus, 2-(3-Fluoro-3′-methoxy-biphenyl-4-ylcarbamoyl)-cyclopent-1-enecarboxylic acid]",5.39
